Drawing on patent publication US20260070911A1, “INHIBITORS OF TAM RECEPTORS” (National Health Research Institutes, priority 2022, published 2026), this text covers IC50 for 28 molecules.

Format in all cases: biochemical
Assay [1] deals with T1, MERTK (Homo sapiens, UniProt Q12866).
T1 sequence (Q12866 21-999): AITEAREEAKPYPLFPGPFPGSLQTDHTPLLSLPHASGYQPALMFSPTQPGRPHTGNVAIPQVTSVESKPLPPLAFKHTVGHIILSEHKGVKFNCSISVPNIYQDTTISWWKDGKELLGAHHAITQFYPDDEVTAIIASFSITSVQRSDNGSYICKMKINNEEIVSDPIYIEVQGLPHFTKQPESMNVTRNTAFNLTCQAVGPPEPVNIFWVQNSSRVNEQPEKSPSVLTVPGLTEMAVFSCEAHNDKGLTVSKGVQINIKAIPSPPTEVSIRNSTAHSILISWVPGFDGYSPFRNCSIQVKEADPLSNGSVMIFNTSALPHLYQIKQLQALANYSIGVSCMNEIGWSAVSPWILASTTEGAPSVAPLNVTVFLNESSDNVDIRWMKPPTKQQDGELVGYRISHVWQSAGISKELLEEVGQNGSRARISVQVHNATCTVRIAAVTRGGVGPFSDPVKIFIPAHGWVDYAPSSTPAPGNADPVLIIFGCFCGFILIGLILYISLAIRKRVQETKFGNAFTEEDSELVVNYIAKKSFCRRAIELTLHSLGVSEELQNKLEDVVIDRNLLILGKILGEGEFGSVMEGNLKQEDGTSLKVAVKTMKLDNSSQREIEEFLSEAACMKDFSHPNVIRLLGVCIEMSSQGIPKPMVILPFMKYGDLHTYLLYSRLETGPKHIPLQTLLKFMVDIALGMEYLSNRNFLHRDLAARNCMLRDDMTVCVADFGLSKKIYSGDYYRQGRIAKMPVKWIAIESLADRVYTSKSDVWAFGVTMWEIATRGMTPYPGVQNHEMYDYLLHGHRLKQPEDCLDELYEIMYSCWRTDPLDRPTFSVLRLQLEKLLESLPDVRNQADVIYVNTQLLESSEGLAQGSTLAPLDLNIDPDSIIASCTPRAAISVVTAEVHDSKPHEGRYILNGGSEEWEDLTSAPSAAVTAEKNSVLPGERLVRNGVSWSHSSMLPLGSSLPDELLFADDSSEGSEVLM
In words: MERTK enzymatic assay (Kinase Glo). To be noted: purified kinase, ATP 12 μM, read-out: MER Enzymatic Inhibition (%). For orientation: Kinase-Glo reads ATP consumption through a luciferase reaction.

Assay [2] concerns the target T2, AXL (Homo sapiens, UniProt P30530).
T2 sequence (P30530 26-894): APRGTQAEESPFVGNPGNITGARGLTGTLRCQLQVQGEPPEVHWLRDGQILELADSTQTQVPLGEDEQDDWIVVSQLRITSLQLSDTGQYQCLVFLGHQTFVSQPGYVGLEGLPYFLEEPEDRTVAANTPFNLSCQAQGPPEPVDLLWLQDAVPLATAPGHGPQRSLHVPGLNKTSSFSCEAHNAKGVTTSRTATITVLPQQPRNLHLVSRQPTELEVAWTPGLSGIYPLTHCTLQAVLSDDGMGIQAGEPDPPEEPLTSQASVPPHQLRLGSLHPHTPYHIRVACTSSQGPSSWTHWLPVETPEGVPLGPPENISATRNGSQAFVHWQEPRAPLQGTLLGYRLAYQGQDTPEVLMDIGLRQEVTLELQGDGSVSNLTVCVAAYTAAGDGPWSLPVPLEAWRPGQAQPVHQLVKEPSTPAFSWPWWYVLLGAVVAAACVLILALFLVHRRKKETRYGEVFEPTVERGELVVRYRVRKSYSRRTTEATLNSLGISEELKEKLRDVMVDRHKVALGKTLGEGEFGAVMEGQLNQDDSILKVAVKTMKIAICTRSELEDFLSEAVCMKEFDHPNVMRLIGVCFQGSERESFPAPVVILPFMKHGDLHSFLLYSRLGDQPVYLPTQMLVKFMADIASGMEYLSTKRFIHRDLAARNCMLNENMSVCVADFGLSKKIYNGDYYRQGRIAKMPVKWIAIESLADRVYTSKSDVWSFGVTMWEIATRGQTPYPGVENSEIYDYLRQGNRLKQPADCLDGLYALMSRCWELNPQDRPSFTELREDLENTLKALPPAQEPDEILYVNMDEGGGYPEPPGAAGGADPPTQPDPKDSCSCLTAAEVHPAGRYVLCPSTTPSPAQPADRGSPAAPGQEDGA
Description: AXL enzymatic assay (ADP-Glo). To be noted: purified kinase, ATP 50 μM, read-out: AXL Enzymatic Inhibition (%). On the technique in general: ADP-Glo turns the ADP formed in a reaction into a luminescent signal.

Assay [3] deals with MER/AXL. Description: Dual MER/AXL inhibition (enzymatic). Conditions: class for both MER and AXL.

Regarding `Cn1cc(C(=O)Nc2ccc(Oc3ncnc4[nH]cc(-c5cccc(N)c5)c34)cc2)c(=O)n1-c1ccc(F)cc1` [Compound 124], the IC50 in assay [1], in assay [2] and in assay [3] was 100 to 50000 nM throughout.

Turning to `O=C(Nc1ccc(Oc2ncnc3ccsc23)cc1)c1cccn(-c2ccc(F)cc2)c1=O` [Compound 41], the IC50 in assay [1] is 100 to 50000 nM; in assay [2] it was 20 to 100 nM; in assay [3], 100 to 50000 nM.

Turning to `CN1CCN(c2ccc(-c3c(-c4cnn(C)c4)oc4ncnc(Oc5ccc(NC(=O)c6cccn(-c7ccc(F)cc7)c6=O)cc5)c34)cc2)CC1` [Compound 34], the IC50 in assay [1], in assay [2] and in assay [3] was under 20 nM in each case.

In the case of `CCOc1ccn(-c2ccc(F)cc2)c(=O)c1C(=O)Nc1ccc(Oc2ncnc3[nH]cc(-c4cccc(NC(C)=O)c4)c23)cc1` [Compound 2], the IC50 in assay [1] is 20 to 100 nM; in assay [2], under 20 nM; in assay [3], 20 to 100 nM.

In the case of `O=C(Nc1ccc(Oc2ncnc3[nH]cc(-c4ccccc4)c23)cc1)c1cccn(-c2ccc(F)cc2)c1=O` [Compound 8], the IC50 in assay [1] lay in the range of 20 to 100 nM; in assay [2] it was 100 to 50000 nM; in assay [3], 100 to 50000 nM.

In the case of `CC(=O)Nc1cccc(-c2c(-c3cc[nH]n3)oc3ncnc(Oc4ccc(NC(=O)c5cccn(-c6ccc(F)cc6)c5=O)cc4)c23)c1` [Compound 67], the IC50 in assay [1] was 100 to 50000 nM; in assay [2] it was under 20 nM; in assay [3], 100 to 50000 nM.

For the molecule `CC(=O)Nc1cccc(-c2c(-c3cnn(C)c3)oc3ncnc(Oc4ccc(NC(=O)c5cc6c(n(-c7ccc(F)cc7)c5=O)CCCC6=O)cc4)c23)c1` [Compound 69], the IC50 in assay [1] was 100 to 50000 nM; in assay [2], under 20 nM; in assay [3], 100 to 50000 nM.

Take `O=C(Nc1ccc(Oc2ncnc3[nH]cc(-c4ccccn4)c23)cc1)c1cccn(-c2ccc(F)cc2)c1=O` [Compound 17]: the figures for the IC50 in assay [1], in assay [2] and in assay [3] were 100 to 50000 nM, under 20 nM and 100 to 50000 nM, respectively.

As for `CN(C)Cc1ccccc1-c1c(-c2cnn(C)c2)oc2ncnc(Oc3ccc(NC(=O)c4cccn(-c5ccc(F)cc5)c4=O)cc3)c12` [Compound 91], the IC50 in assay [1], in assay [2] and in assay [3] was 100 to 50000 nM each time.

Regarding `CC(=O)Nc1cccc(-c2c(-c3cnn(C)c3)oc3ncnc(Oc4ccc(NC(=O)c5c(C)ccn(-c6ccc(F)cc6)c5=O)cc4)c23)c1` [Compound 72], the IC50 in assay [1], in assay [2] and in assay [3] was 100 to 50000 nM each time.

Turning to `CC(=O)Nc1cccc(-c2c[nH]c3ncnc(Oc4ccc(NC(=O)c5cn(C)n(-c6ccc(F)cc6)c5=O)cc4)c23)c1` [Compound 125], the IC50 in assay [1], in assay [2] and in assay [3] was 100 to 50000 nM throughout.

Regarding `CC(=O)Nc1cccc(-c2c(-c3cnn(C)c3)oc3ncnc(Oc4ccc(NC(=O)c5cccn(-c6ccccc6)c5=O)cc4)c23)c1` [Compound 56], the values for the IC50 in assay [1], in assay [2] and in assay [3] were 20 to 100 nM, under 20 nM and 20 to 100 nM, respectively.

With `CC(=O)Nc1cccc(-c2c(-c3cnn(C)c3)oc3ncnc(Oc4ccc(NC(=O)c5cccn(-c6cccc(F)c6)c5=O)cc4)c23)c1` [Compound 57], the IC50 is 100 to 50000 nM in assay [1], under 20 nM in assay [2] and 100 to 50000 nM in assay [3].

With `Cn1cc(-c2oc3ncnc(Oc4ccc(NC(=O)c5cccn(-c6ccc(F)cc6F)c5=O)cc4)c3c2-c2cccc(N)c2)cn1` [Compound 92], the results for the IC50 in assay [1], in assay [2] and in assay [3] were 20 to 100 nM, under 20 nM and 20 to 100 nM, respectively.

For `CN(c1cccc(-c2c(-c3cnn(C)c3)oc3ncnc(Oc4ccc(NC(=O)c5cccn(-c6ccc(F)cc6)c5=O)cc4)c23)c1)S(C)(=O)=O` [Compound 65], the IC50 in assay [1] lay within 100 to 50000 nM; in assay [2], 20 to 100 nM; in assay [3] it was 100 to 50000 nM.

Regarding `CC(=O)Nc1cccc(-c2c(-c3cnn(C)c3)oc3ncnc(Oc4ccc(NC(=O)c5cc(-c6ccc(F)cc6)on5)cc4)c23)c1` [Compound 116], the IC50 in assay [1], in assay [2] and in assay [3] was 100 to 50000 nM throughout.

Consider `CN(C)Cc1cccc(-c2c[nH]c3ncnc(Oc4ccc(NC(=O)c5cn(C)n(-c6ccc(F)cc6)c5=O)cc4)c23)c1` [Compound 134], for which the IC50 in assay [1], in assay [2] and in assay [3] was 100 to 50000 nM throughout.

Consider `Cn1cc(-c2oc3ncnc(Oc4ccc(NC(=O)c5ccc(-c6ccc(F)cc6)o5)cc4)c3c2-c2cccc(N)c2)cn1` [Compound 117], for which the IC50 in assay [1] lay within 100 to 50000 nM; in assay [2] it was 20 to 100 nM; in assay [3], 100 to 50000 nM.

On to `Cn1cc(-c2oc3ncnc(Oc4ccc(NC(=O)c5cccn(-c6cccc(F)c6)c5=O)cc4)c3c2-c2cccc(N)c2)cn1` [Compound 55], for which the values for the IC50 in assay [1], in assay [2] and in assay [3] were 20 to 100 nM, under 20 nM and 20 to 100 nM, respectively.

Regarding `Cc1cc(F)ccc1-n1cccc(C(=O)Nc2ccc(Oc3ncnc4oc(-c5cnn(C)c5)c(-c5cccc(N)c5)c34)cc2)c1=O` [Compound 73], the figures for the IC50 in assay [1], in assay [2] and in assay [3] were 20 to 100 nM, under 20 nM and 20 to 100 nM, respectively.

Turning to `CC(=O)Nc1cccc(-c2c(-c3cn(C)nc3C)oc3ncnc(Oc4ccc(NC(=O)c5cccn(-c6ccc(F)cc6)c5=O)cc4)c23)c1` [Compound 27], the IC50 is 100 to 50000 nM in assay [1], under 20 nM in assay [2] and 100 to 50000 nM in assay [3].

As to `Cn1cc(-c2oc3ncnc(Oc4ccc(NC(=O)c5cccn(-c6ccc(F)cc6)c5=O)nc4)c3c2-c2cccc(N)c2)cn1` [Compound 52], the IC50 in assay [1] is 20 to 100 nM; in assay [2], under 20 nM; in assay [3], 20 to 100 nM.

Regarding `CN(C)Cc1cccc(-c2n[nH]c3ncnc(Oc4ccc(NC(=O)c5cn(C)n(-c6ccc(F)cc6)c5=O)cc4)c23)c1` [Compound 139], the IC50 in assay [1], in assay [2] and in assay [3] was 100 to 50000 nM each time.

On to `CN(C(=O)c1cccn(-c2ccc(F)cc2)c1=O)c1ccc(Oc2ncnc3oc(-c4cnn(C)c4)c(-c4cccc(N(C)S(C)(=O)=O)c4)c23)cc1` [Compound 64], for which the IC50 in assay [1], in assay [2] and in assay [3] was 100 to 50000 nM each time.

Consider `Cn1cc(-c2oc3ncnc(Oc4ccc(NC(=O)c5cccn(-c6ccc(F)cc6)c5=O)cc4)c3c2-c2cccc(N3CCCCC3=O)c2)cn1` [Compound 175], for which the IC50 in assay [1], in assay [2] and in assay [3] was 100 to 50000 nM throughout.

As to `CC(=O)Nc1cccc(-c2c(-c3cnn(C)c3)oc3ncnc(Oc4ccc(NC(=O)c5cccn(C)c5=O)cc4)c23)c1` [Compound 75], the IC50 in assay [1], in assay [2] and in assay [3] was 100 to 50000 nM in each case.

Turning to `CN(C)Cc1cccc(-c2c[nH]c3ncnc(Oc4ccc(NC(=O)c5cccn(-c6ccc(F)cc6)c5=O)cc4)c23)c1` [Compound 82], the IC50 in assay [1], in assay [2] and in assay [3] was under 20 nM throughout.

Consider `CC(=O)Nc1cccc(-c2c(-c3cn[nH]c3)oc3ncnc(Oc4ccc(NC(=O)c5cccn(-c6ccc(F)cc6)c5=O)cc4)c23)c1` [Compound 40], for which the IC50 in assay [1] is 20 to 100 nM; in assay [2] it was under 20 nM; in assay [3] it was 20 to 100 nM.
